Assay results published in PMC7905067, “Design and Immunological Evaluation of a Hybrid Peptide as a Potent TLR2 Agonist by Structure-Based Virtual Screening” (Frontiers in Cell and Developmental Biology, 2021).
Entries after “also recorded” stand apart in the source; their conditions may differ.

Experiments:
[1] = tested on: CTX-immunosuppressed murine model; test: Body weight and immune organ indices in CTX-immunosuppressed mice; type: in vivo, BALB/c mice; conditions: CTX 80 mg/kg i.p. 3 days, peptide 10 mg/kg i.p. days 4-10, n = 12
Method: BALB/c mice (female, 6–8 weeks; Charles River, Beijing, China) used in this study were maintained in a specific-pathogen-free facility (55 ± 10% humidity and 22 ± 1°C) during the experiments. These experiments were conducted with approval from the Institutional Animal Care and Use Committee of China Agricultural University (certificate of the Beijing Laboratory Animal employee, ID: 18086).
(§1) After a 7-day adaptation period, the mice were randomly divided into five groups (n = 12 in each group): (1) control group: physiological saline was injected intraperitoneally once daily; (2) cyclophosphamide (CTX) group: CTX (80 mg/kg mouse weight; Sigma-Aldrich, St. Louis, MO, United States) was injected intraperitoneally once daily for the first 3 days. […] From days 4 to 10, peptide (10 mg/kg mouse weight) was injected intraperitoneally into mice once daily. Twenty-four hours after the last drug administration, all the mice were weighed and then euthanized, and their tissues and blood were collected for further study. The body weight index was calculated according to the formula:
Index(%)=finalbodyweight-initalbodyweight/initialbodyweight×100
The thymus and spleen indices were measured by the following formula:
Index(mg/g)=weightofthymusorspleen/bodyweight

[2] = tested on: MHC class II, mouse PBMCs; test: DC maturation: MHC-II expression by flow cytometry; type: in vivo, BALB/c mice; conditions: CTX 80 mg/kg i.p. 3 days; peptide 10 mg/kg i.p. days 4-10; three biological replicates
Method: as §1, with “formula: […]” for “formula:”
Mouse peripheral blood mononuclear cells (PBMCs) were obtained from the different groups of mice through Ficoll density gradient centrifugation. The cells were resuspended in PBS with 5% FBS and incubated with 10% (v/v) normal goat serum for 15 min at 4°C. The cells were combined with FITC-conjugated antibodies specific for MHC class II (MHC-II; BD Pharmingen, United States). The surface expression of MHC-II was determined by flow cytometry.

[3] = tested on: serum TNF-α, IL-6, and IL-1β; test: Serum cytokines by ELISA in CTX-treated mice; type: in vivo, BALB/c mice; conditions: CTX 80 mg/kg i.p. 3 days, peptide 10 mg/kg i.p. days 4-10, three biological replicates
Method: as §1, with “formula: […]” for “formula:”
(§2) Serum was collected from blood and then assayed by ELISA kits according to the protocol supplied by the manufacturer (eBioscience, San Diego, United States) to determine the secretion of IgG, IgA, IgM, TNF-α, IL-6, and IL-1β.

[4] = tested on: TLR2; test: Surface plasmon resonance, immobilized TLR2; type: binding; conditions: Biacore X100, CM5 chip, PBS containing 0.05% Tween 20; 0, 1.25, 2.5, 5, and 10 mM
Method: Surface plasmon resonance (SPR) experiments were carried out using a Biacore X100 instrument (GE Healthcare, Pittsburgh, PA, United States) by standard amine coupling. TLR2 (R&D Systems, Minneapolis, MN, United States) was amine-coupled to a Biacore CM5 sensor chip (Bio-Rad). The peptide was diluted to varying concentrations (0, 1.25, 2.5, 5, and 10 mM) in running buffer (PBS containing 0.05% Tween 20) and run sequentially over immobilized TLR2. Binding curves were processed for the initial injection alignment and baseline, and a reference-subtracted sensorgram was globally fitted to the curves to describe a homogeneous 1:1 model. Data analysis was conducted using ProteOn manager software (version 2.0). Data from the protein surfaces were grouped together to fit the association kinetic rate constant (Ka) and the dissociation rate constant (Kd). The equilibrium dissociation constant (KD) for the peptide-TLR2 interaction was calculated as follows: […]

[5] = tested on: T lymphocyte subpopulations (CD4 +, CD8 +), mouse peripheral blood; test: Peripheral blood T lymphocyte subpopulations by flow cytometry; type: in vivo, BALB/c mice; conditions: CTX 80 mg/kg i.p. 3 days; peptide 10 mg/kg i.p. days 4-10; three biological replicates
Method: as §1, with “formula: […]” for “formula:”
Erythrocytes were aseptically obtained from the different groups of mouse peripheral blood and lysed with RBC lysis buffer. The remaining cells were washed with PBS and resuspended in PBS. The cells were combined with peridinin-chlorophyll-protein complex (PerCP)-conjugated anti-mouse CD3 +, allophycocyanin (APC)-conjugated anti-mouse CD4 +, and fluorescein isothiocyanate (FITC)-conjugated anti-mouse CD8 + (BD Pharmingen, United States) for 30 min at 4°C. The T lymphocyte subpopulations were analyzed by flow cytometry.

[6] = tested on: serum IgA, IgG, and IgM; test: Serum immunoglobulins by ELISA in CTX-treated mice; type: in vivo, BALB/c mice; conditions: CTX 80 mg/kg i.p. 3 days, peptide 10 mg/kg i.p. days 4-10, three biological replicates
Method: as §1, with “formula: […]” for “formula:”
as §2

[7] = tested on: TLR2, RAW264.7 cells; test: Cell surface TLR2 cluster formation by confocal laser-scanning microscopy; type: cell-based, mouse; conditions: LTPa 10 μg/mL, 1 h, 37°C; clusters = fluorescence > 40 arbitrary units; three independent experiments
Method: RAW264.7 cells were treated with or without 10 μg/mL LTPa for 1 h at 37°C. The cells were then incubated (30 min, on ice) with anti-mouse monoclonal antibody TLR2 or isotype control (IgG) (eBioscience) before washing with PBS. Then, the cells were stained with a FITC–conjugated anti-mouse IgG antibody for 30 min on ice (Jackson Laboratories). After washing with PBS and fixing with paraformaldehyde, the cell nuclei were stained with DAPI (1:500 dilution in PBS) (Sigma-Aldrich). The cells were then imaged with the Leica TCS SP5 confocal system (Leica Microsystems Ltd.). LAS AF software was used to process the images and quantify the fluorescence. In addition, to generate a fluorescence histogram profile, a line was drawn along the cell surface. Fluorescence intensities higher than 40 arbitrary units (isotype control staining) were considered clusters of TLR2 molecules.

[8] = tested on: TLR2, RAW264.7 cells; test: TLR2 blocking experiment (anti-mouse TLR2 C9A12, then LTPa); type: cell-based; conditions: LTPa 10 μg/mL, 24 h; with or without TLR2 mAb (C9A12) 1 h before; ELISA
Method: For TLR2 blocking experiments, RAW264.7 cells were cultured in 24-well plates overnight at 37°C. The mouse IgG2a isotype control antibody or anti-mouse TLR2 (C9A12; InvivoGen, San Diego, CA, United States) was added to the cell cultures 1 h before being treated with LTPa for 24 h at 37°C. Then, the levels of TNF-α, IL-6, and IL-1β in the culture supernatant were analyzed.

[9] = tested on: RAW264.7 cells; test: In vitro immunomodulatory activity: cytokine secretion by RAW264.7 cells (ELISA); type: cell-based, murine; conditions: 10 μg/mL, 12 h
Method: RAW264.7 cells were seeded at a density of 1.0 × 10^6 cell/mL and treated with (10 μg/mL) or without peptides in each well of a 6-well plate for 12 h at 37°C in a humidified incubator with 5% CO2. After treatment, TNF-α, IL-6 and IL-1β secretion in the cell supernatants was assessed using ELISA kits according to the manufacturer’s instructions.

[10] = 37°C, ELISA, three independent experiments

## IGKEFKRIVQRIKDFLRNLVPRTERKDVT [LTPa, hybrid peptide combining LL-37a and TP5]
[1]
  spleen index: significantly higher than those in the LL-37-treated and TP5-treated groups
  thymus index: significantly higher than those in the LL-37-treated and TP5-treated groups
[1]; CTX group vs control
  bodyweight: improved bodyweight rapidly; also recorded: significantly higher than that in the parental peptide (LL-37 and TP5)-treated groups
[2]
  expression of MHC-II: increased by LTPa treatment; also recorded: significantly higher than that in the LL-37-treated and TP5-treated groups
[3]
  serum IL-1β level: higher than those in the TP5- or LL-37-treated groups; also recorded: efficiently reversed the declines
  serum IL-6 level: higher than those in the TP5- or LL-37-treated groups; also recorded: efficiently reversed the declines
  serum TNF-α level: higher than those in the TP5- or LL-37-treated groups; also recorded: efficiently reversed the declines
[4]
  binding to TLR2 (SPR): could effectively bind to the TLR2
[5]
  proportions of CD4 + and CD8 + T lymphocytes: significantly higher than that in the LL-37-treated group and similar to that in the TP5-treated group
[6]
  serum IgA level: significantly higher total serum IgA, IgG, and IgM levels than mice in the TP5- or LL-37-treated groups
  serum IgG level: significantly higher total serum IgA, IgG, and IgM levels than mice in the TP5- or LL-37-treated groups
  serum IgM level: significantly higher total serum IgA, IgG, and IgM levels than mice in the TP5- or LL-37-treated groups
[7]
  TLR2 clusters per micrometer on the cell surface: significantly increased the number of major TLR2 clusters per micrometer on the cell surface
[8]
  TNF-α, IL-6, and IL-1β production: significantly caused increase levels of TNF-α, IL-6, and IL-1β
[9]; [10]
  IL-1β secretion: remarkable increases
  IL-6 secretion: remarkable increases
  TNF-α secretion: remarkable increases
[9]; vs the other peptides tested
  secretion of TNF-α, IL-6, and IL-1β (comparison between peptides): significantly increased the secretion of TNF-α, IL-6, and IL-1β in comparison with the other peptides tested
